Legend:
[1] = tested on: collagen-induced platelet aggregation; test: Platelet aggregation suppressing effect (collagen-induced aggregation in platelet rich plasma); type: cell-based; settings: human PRP, 37° C., collagen as inducer, read-out: Inhibitory effect of collagen-induced platelet aggregation IC50
Experimental: Human blood was collected using 3.13% sodium citrate in a volume 1/10 of the blood volume, as an anticoagulant. The collected blood was centrifuged at 180 g for 10 minutes to separate platelet rich plasma (PRP) from the blood. After collecting the PRP fraction in the upper layer, the lower layer was further centrifuged at 1600 g for 10 minutes to fractionate platelet poor plasma (PPP) in the upper layer. One μl of a solution of a compound obtained in the Examples was added to 200 μl of PRP, and the mixture was allowed to stand at 37° C. for 2 minutes. Subsequently, 2 μl of collagen was added thereto, so as to induce platelet aggregation. The platelet aggregation rate was measured using PAM-12C(SSR Engineering, Inc.).

Cyclooxygenase-1 (COX-1) = target: T1, Cyclooxygenase-1 (COX-1) (Ovis aries, UniProt P05979); test: COX-1 inhibition, COX Inhibitor Screening Assay Kit (PGF2α production, ELISA); type: biochemical; settings: compound 50 μM
T1 construct: purchased Cayman Chemical Company 560101
T1 sequence (P05979 25-600): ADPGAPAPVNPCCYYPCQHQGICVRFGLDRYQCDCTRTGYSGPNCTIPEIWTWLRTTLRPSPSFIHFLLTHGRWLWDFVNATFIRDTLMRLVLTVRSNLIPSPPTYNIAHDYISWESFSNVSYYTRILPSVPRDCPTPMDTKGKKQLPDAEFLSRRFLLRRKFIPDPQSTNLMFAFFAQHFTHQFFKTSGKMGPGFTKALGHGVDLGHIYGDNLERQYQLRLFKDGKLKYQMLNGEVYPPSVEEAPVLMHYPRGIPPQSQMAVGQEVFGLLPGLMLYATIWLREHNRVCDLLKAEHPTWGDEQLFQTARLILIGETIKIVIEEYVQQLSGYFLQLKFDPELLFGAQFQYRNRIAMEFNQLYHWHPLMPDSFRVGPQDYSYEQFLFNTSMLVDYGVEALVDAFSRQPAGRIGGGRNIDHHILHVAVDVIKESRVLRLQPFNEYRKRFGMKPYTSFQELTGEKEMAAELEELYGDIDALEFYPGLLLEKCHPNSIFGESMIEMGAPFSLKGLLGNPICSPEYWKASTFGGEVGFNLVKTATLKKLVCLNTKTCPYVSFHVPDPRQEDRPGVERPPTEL
Source text: For the measurement of the inhibitory activity of the compounds obtained in the Examples against COX-1 and COX-2, a COX Inhibitor Screening Assay Kit manufactured by Cayman Chemical Company (Catalog Nos. 560101 and 560121) was used.
Before starting the measurement, a reaction buffer, heme, arachidonic acid, SnCl2, EIA buffer, a washing buffer, prostaglandin (PG)-screening EIA standard solution, PG-screening acetylcholinesterase (AchE), a tracer […], and PG-screening EIA antiserum were provided.
A reaction solution containing a compound of the Examples (50 μM) and COX-1, or a reaction solution containing a compound of the Examples (300 μM) and COX-2 was allowed to stand at 37° C. for 10 minutes, then 10 μl of arachidonic acid was added thereto, and the resultant mixture was allowed to stand at 37° C. for 2 minutes. After the reaction, 50 μl of 1 N hydrochloric acid was added to the reaction mixture to stop the reaction, and 100 μl of a SnCl2 solution was added thereto. The resultant mixture was allowed to stand at room temperature for 5 minutes.
50 μl of antiserum (rabbit anti-PGF2α antibody) was added to each well of a 96-well plate coated with mouse anti-rabbit IgG. Then, 50 μl of a solution prepared by diluting the reaction solution for PGF2α production to 2000-folds, and 50 μl of an AchE tracer were added sequentially to the wells, and the plate was kept at room temperature for 18 hours. Each well washed 5 times with the washing buffer to remove excessive AchE tracer, and then 200 μl of Ellman reagent was added to each well. The plate was kept in the dark room for 60 minutes, and then, absorbance at 405 nm was measured.
A standard curve was produced using a PG-screening EIA standard solution, and the amount of PGF2α production was determined from the absorbance obtained as described above. The COX-1 inhibition rate at 50 μM of the compound of the Examples, and the COX-2 inhibition rate at 300 μM of the compound of the Examples were calculated.

Row | Compound | IC50 [1] | COX-1 inhibitory action at 50 μM (% inhibition) (Cyclooxygenase-1 (COX-1))
1 | COc1ccc(-c2cc(C(=O)N3CCOCC3)nn2-c2ccc(C)nc2)nc1 [Example 1, 4-[5-(5-Methoxy-2-pyridyl)-1-(6-methyl-3-pyridyl)-1H-pyrazole-3-carbonyl]morpholine] | 210 nM | −13.3 % inhibition
2 | Cc1ccc(-n2nc(C(=O)N3CCC(F)(F)CC3)cc2-c2cnc(C)cn2)cn1 [Example 2, 1-[5-(5-Methyl-2-pyrazinyl)-1-(6-methyl-3-pyridyl)-1H-pyrazole-3-carbonyl]-4,4-difluoropiperidine] | 130 nM | −1.2 % inhibition
3 | COC1CCN(C(=O)c2cc(-c3cnc(C)cn3)n(-c3ccc(C)nc3)n2)CC1 [Example 3, 1-[5-(5-Methyl-2-pyrazinyl)-1-(6-methyl-3-pyridyl)-1H-pyrazole-3-carbonyl]-4-methoxypiperidine] | 220 nM | −21.2 % inhibition
4 | COc1ccc(-c2cc(C(=O)N3CCC(OC)CC3)nn2-c2ccc(C)nc2)nc1 [Example 4, 1-[5-(5-Methoxy-2-pyridyl)-1-(6-methyl-3-pyridyl)-1H-pyrazole-3-carbonyl]-4-methoxypiperidine] | 210 nM | −13.3 % inhibition
5 | COc1ccc(-n2nc(C(=O)N3CCCCN3)cc2-c2ccccn2)nn1 [Example 5, 1-[1-(6-Methoxy-3-pyridazinyl)-5-(2-pyridyl)-1H-pyrazole-3-carbonyl]hexahydropyridazine] | 210 nM | −35.9 % inhibition
6 | COc1ccc(-n2nc(C(=O)N3CCN(C)C(=O)C3)cc2-n2cccc2)cn1 [Example 10, 1-[1-(6-Methoxy-3-pyridyl)-5-(1H-pyrrol-1-yl)-1H-pyrazole-3-carbonyl]-4-methyl-3-oxopiperazine] | 190 nM | 54.1 % inhibition
7 | COc1ccc(-n2nc(C(=O)N3CCN(C)CC3)cc2-c2ccc[nH]2)nn1 [Example 12, 1-[1-(6-Methoxy-3-pyridazinyl)-5-(1H-pyrrol-2-yl)-1H-pyrazole-3-carbonyl]-4-methylpiperazine] | 320 nM | 25.9 % inhibition
8 | COc1ccc(-n2nc(C(=O)N3CCC(OC)CC3)cc2-c2ccc[nH]2)nn1 [Example 14, 1-[1-(6-Methoxy-3-pyridazinyl)-5-(1H-pyrrol-2-yl)-1H-pyrazole-3-carbonyl]-4-methoxypiperidine] | 120 nM | 39.3 % inhibition
9 | Cc1ccc(-n2nc(C(=O)N3CCOCC3)cc2-c2ccn(C)c2)cn1 [Example 16, 4-[1-(6-Methyl-3-pyridyl)-5-(1-methyl-1H-pyrrol-3-yl)-1H-pyrazole-3-carbonyl]morpholine] | 120 nM | −5.2 % inhibition
10 | Cc1ccc(-c2cc(C(=O)N3CCC(F)(F)CC3)nn2-c2ccc(C)nn2)nc1 [Example 18, 1-[1-(6-Methyl-3-pyridazinyl)-5-(5-methyl-2-pyridyl)-1H-pyrazole-3-carbonyl]-4,4-difluoropiperidine] | 200 nM | −3.0 % inhibition
11 | COc1ccc(-n2nc(C(=O)N3CCC(OC)CC3)cc2-c2ccccn2)cn1 [Example 20, 1-[1-(6-Methoxy-3-pyridyl)-5-(2-pyridyl)-1H-pyrazole-3-carbonyl]-4-methoxypiperidine] | 120 nM | −17.0 % inhibition
12 | COc1ccc(-n2nc(C(=O)N3CCCC3C)cc2-c2ccccn2)nn1 (stereo not shown) [Example 27, 1-[1-(6-Methoxy-3-pyridazinyl)-5-(2-pyridyl)-1H-pyrazole-3-carbonyl]-2-methylpyrrolidine] | 91 nM | −10.2 % inhibition
13 | COc1ccc(-n2nc(C(=O)N3CCC[C@H]3CF)cc2-c2ccccn2)nn1 [Example 31, (2S)-1-[1-(6-Methoxy-3-pyridazinyl)-5-(2-pyridyl)-1H-pyrazole-3-carbonyl]-2-fluoromethylpyrrolidine] | 180 nM | −10.5 % inhibition
14 | Cc1ccc(-n2nc(C(=O)N3CCC(F)CC3)cc2-c2cnc(C)cn2)cn1 [Example 32, 1-[5-(5-Methyl-2-pyrazinyl)-1-(6-methyl-3-pyridyl)-1H-pyrazole-3-carbonyl]-4-fluoropiperidine] | 210 nM | −8.4 % inhibition
15 | COc1ccc(-n2nc(C(=O)N3CCOCC3)cc2-c2cc[nH]n2)cn1 [Example 33, 4-[1-(6-Methoxy-3-pyridyl)-5-(1H-pyrazol-3-yl)-1H-pyrazole-3-carbonyl]morpholine] | 97 nM | −9.5 % inhibition
16 | COc1ccc(-n2nc(C(=O)N3CCC(OC)CC3)cc2-c2cscn2)cn1 [Example 128, 1-[1-(6-Methoxy-3-pyridyl)-5-(thiazol-4-yl)-1H-pyrazole-3-carbonyl]-4-methoxypiperidine] | 100 nM | –
17 | COc1ccc(-n2nc(C(=O)N3CCCCC3C(N)=O)cc2-c2cscn2)cn1 (stereo not shown) [Example 129, 1-[1-(6-Methoxy-3-pyridyl)-5-(thiazol-4-yl)-1H-pyrazole-3-carbonyl]-2-carbamoylpiperidine] | 260 nM | –
18 | COc1ccc(-n2nc(C(=O)N3CCN(C)CC3)cc2-c2cscn2)nn1 [Example 131, 1-[1-(6-Methoxy-3-pyridazinyl)-5-(thiazol-4-yl)-1H-pyrazole-3-carbonyl]-4-methylpiperazine] | 320 nM | –
19 | COc1ccc(-n2nc(C(=O)N3CCC(OC)CC3)cc2-c2cscn2)nn1 [Example 132, 1-[1-(6-Methoxy-3-pyridazinyl)-5-(thiazol-4-yl)-1H-pyrazole-3-carbonyl]-4-methoxypiperidine] | 190 nM | –
20 | COc1ccc(-n2nc(C(=O)N3CCC(F)(F)CC3)cc2-c2cscn2)nn1 [Example 133, 1-[1-(6-Methoxy-3-pyridazinyl)-5-(thiazol-4-yl)-1H-pyrazole-3-carbonyl]-4,4-difluoropiperidine] | 80 nM | –
21 | COc1ccc(-n2nc(C(=O)N3CCCCN3)cc2-c2cnn(C)c2)cn1 [Example 134, 1-[1-(6-Methoxy-3-pyridyl)-5 (1-methyl-1H-pyrazol-4-yl)-1H-pyrazole-3-carbonyl]hexahydropyridazine] | 40 nM | –
22 | COc1ccc(-n2nc(C(=O)N3CCCOCC3)cc2-c2cnn(C)c2)cn1 [Example 136, 4-[1-(6-Methoxy-3-pyridyl)-5-(1-methyl-1H-pyrazol-4-yl)-1H-pyrazole-3-carbonyl]-1,4-oxazepane] | 360 nM | –
23 | COc1ccc(-n2nc(C(=O)N3CCCOCC3)cc2-c2cscn2)nn1 [Example 137, 4-[1-(6-Methoxy-3-pyridazinyl)-5-(thiazol-4-yl)-1H-pyrazole-3-carbonyl]-1,4-oxazepane] | 80 nM | –
24 | COc1ccc(-n2nc(C(=O)N3CCCCN3)cc2-c2cscn2)cn1 [Example 138, 1-[1-(6-Methoxy-3-pyridyl)-5-(thiazol-4-yl)-1H-pyrazole-3-carbonyl]hexahydropyridazine] | 41 nM | –
25 | COc1ccc(-n2nc(C(=O)N3CCCOCC3)cc2-c2cscn2)cn1 [Example 139, 4-[1-(6-Methoxy-3-pyridyl)-5-(thiazol-4-yl)-1H-pyrazole-3-carbonyl]-1,4-oxazepane] | 41 nM | –

Reference: patent publication US20070254881A1, “Pyrazole Derivative” (DAIICHI PHARMACEUTICAL CO., LTD., priority 2004, published 2007)
